The values that follow are results of earlier work, collected in patent US20050112210A1, “Eye nutritional supplement” (priority 2003, published 2005).

This series deals with A2E-epoxidation. As to conditions: singlet oxygen generated in the presence of A2E.
`Cc1cc(C(C)(C)C)c(O)c(C(C)(C)C)c1` [butylated hydroxytoluene]: the “effect on A2E-epoxidation” value was “reduced A2E-epoxidation by quenching singlet oxygen”.

Take `Oc1ccc(C=Cc2cc(O)cc(O)c2)cc1` [resveratrol]: the “effect on A2E-epoxidation” value is reported as “reduced A2E-epoxidation by quenching singlet oxygen”.

Consider vitamin E, for which the “effect on A2E-epoxidation” value is given as “reduced A2E-epoxidation by quenching singlet oxygen”.
